≈ marks a conversion by molar mass, not a printed value.
Experiments:
Klebsiella pneumoniae [1] = experiment: Antimicrobial activity against Klebsiella pneumoniae PU104T expressing TEM-1, CTX-M-15 by CLSI method; format: functional
Escherichia coli [2] = experiment: Antimicrobial activity against carbapenem-resistant Escherichia coli PU96 deficient in TEM-1, CTX-M-14, CMY-2, ompC/F by CLSI method; format: functional
Escherichia coli [3] = experiment: Antimicrobial activity against carbapenem-resistant Escherichia coli PU101 deficient in TEM-1, CTX-M-14, CMY-2, ompC by CLSI method; format: functional
Escherichia coli [4] = experiment: Antimicrobial activity against carbapenem-resistant Escherichia coli PU102 deficient in TEM-1, CTX-M-14, CMY-2, aac(6')-Ib, ompC DEc, ompF by CLSI method; format: functional
Escherichia coli [5] = experiment: Antimicrobial activity against Escherichia coli PU102T expressing TEM-1, CTX-M-14, CMY-2 by CLSI method; format: functional
Klebsiella aerogenes [6] = experiment: Antimicrobial activity against carbapenem-resistant Enterobacter aerogenes PU41 deficient in CTX-M-14, DHA-1, qnrS1, ompC DEc, ompF by CLSI method; format: functional
Klebsiella aerogenes [7] = experiment: Antimicrobial activity against Enterobacter aerogenes PU41T expressing CTX-M-14, DHA-1, qnrS1 by CLSI method; format: functional
Escherichia coli [8] = experiment: Antimicrobial activity against Escherichia coli HX74T expressing CTX-M-3 by CLSI method; format: functional
Klebsiella aerogenes [9] = experiment: Antimicrobial activity against carbapenem-resistant Enterobacter aerogenes WH85 deficient in TEM-1, CTX-M-3, ompC/F by CLSI method; format: functional
Enterobacter cloacae [10] = experiment: Antimicrobial activity against carbapenem-resistant Enterobacter cloacae NJ90 deficient in CTX-M-14, ompC/F by CLSI method; format: functional
Enterobacter cloacae [11] = experiment: Antimicrobial activity against carbapenem-resistant Enterobacter cloacae NJ91 deficient in CTX-M-14, ompC/F by CLSI method; format: functional
Klebsiella pneumoniae [12] = experiment: Antimicrobial activity against carbapenem-resistant Klebsiella pneumoniae GZ84 deficient in SHV-11, aac(6')-Ib-cr, ompK35 by CLSI method; format: functional
Klebsiella pneumoniae [13] = experiment: Antimicrobial activity against Klebsiella pneumoniae WH97 expressing SHV-33, aac(6')-Ib, ompK35 DE by CLSI method; format: functional
Enterobacter cloacae [14] = experiment: Antimicrobial activity against carbapenem-resistant Enterobacter cloacae SZ93 deficient in ompC by CLSI method; format: functional
Klebsiella pneumoniae [15] = experiment: Antimicrobial activity against carbapenem-resistant Klebsiella pneumoniae ZJ18 deficient in KPC-2, SHV-28, DHA-1, ompK35 by CLSI method; format: functional
Klebsiella pneumoniae [16] = experiment: Antimicrobial activity against carbapenem-resistant Klebsiella pneumoniae ZJ70 deficient in KPC-2, SHV-11, CTX-M-14, ompK35/36 by CLSI method; format: functional
Klebsiella pneumoniae [17] = experiment: Antimicrobial activity against Klebsiella pneumoniae ZJ70T expressing KPC-2 by CLSI method; format: functional
Klebsiella pneumoniae [18] = experiment: Antimicrobial activity against Klebsiella pneumoniae ZJ99 expressing KPC-2, CTX-M-3, qnrS1, ompK35 DE by CLSI method; format: functional
Escherichia coli [19] = experiment: Antimicrobial activity against Escherichia coli ZJ86T expressing KPC-2 by CLSI method; format: functional
Escherichia coli [20] = experiment: Antimicrobial activity against Escherichia coli ZJ87 expressing KPC-2, TEM-1, ompC by CLSI method; format: functional
Escherichia coli [21] = experiment: Antimicrobial activity against Escherichia coli ZJ87T expressing KPC-2 by CLSI method; format: functional
Klebsiella pneumoniae [22] = experiment: Antimicrobial activity against carbapenem-resistant Klebsiella pneumoniae FZ47 deficient in IMP-8, TEM-1, SHV-11, CTX-M-14, qnrB2, aac(6')-Ib, ompK35/36 by CLSI method; format: functional
Klebsiella pneumoniae [23] = experiment: Antimicrobial activity against Klebsiella pneumoniae FZ49T expressing IMP-8, TEM-1, CTX-M-14, qnrB2, aac(6')-Ib by CLSI method; format: functional
Klebsiella pneumoniae [24] = experiment: Antimicrobial activity against Klebsiella pneumoniae GZ64 expressing IMP-4, ompK35/36 by CLSI method; format: functional
Klebsiella pneumoniae [25] = experiment: Antimicrobial activity against Klebsiella pneumoniae GZ64T expressing IMP-4 by CLSI method; format: functional
Klebsiella pneumoniae [26] = experiment: Antimicrobial activity against Klebsiella pneumoniae WH76 expressing IMP-4, TEM-1, SHV-14, CTX-M-3, qnrS1 by CLSI method; format: functional
Citrobacter freundii [27] = experiment: Antimicrobial activity against Citrobacter freundii SZ63 expressing IMP-4, qnrS1by CLSI method; format: functional
Citrobacter freundii [28] = experiment: Antimicrobial activity against Citrobacter freundii SZ63T expressing IMP-4, qnrS1by CLSI method; format: functional
Enterobacter cloacae [29] = experiment: Antimicrobial activity against carbapenem-resistant Enterobacter cloacae SZ92 deficient in IMP-4, TEM-1, CTX-M-14, DHA-1, qnrB10/B4-like, aac(6')-Ib, ompC by CLSI method; format: functional
Escherichia coli [30] = experiment: Antimicrobial activity against Escherichia coli C600 by CLSI method; format: functional
Klebsiella pneumoniae [31] = experiment: Antimicrobial activity against carbapenem-resistant Klebsiella pneumoniae CY1 deficient in SHV-11, DHA-1, ompK35/36 by CLSI method; format: functional
Klebsiella pneumoniae [32] = experiment: Antimicrobial activity against Klebsiella pneumoniae CY1T expressing SHV-11, DHA-1 by CLSI method; format: functional
Klebsiella pneumoniae [33] = experiment: Antimicrobial activity against carbapenem-resistant Klebsiella pneumoniae PU4 deficient in SHV-1, DHA-1, ompK35/36 by CLSI method; format: functional
Klebsiella pneumoniae [34] = experiment: Antimicrobial activity against carbapenem-resistant Klebsiella pneumoniae PU5 deficient in SHV-12, DHA-1, aac(6')-Ib-cr, ompK35/36 by CLSI method; format: functional
Klebsiella pneumoniae [35] = experiment: Antimicrobial activity against carbapenem-resistant Klebsiella pneumoniae SZ61 deficient in TEM-1, SHV-1a, CMY-2, ompK35/36 by CLSI method; format: functional
Klebsiella pneumoniae [36] = experiment: Antimicrobial activity against carbapenem-resistant Klebsiella pneumoniae CY75 deficient in SHV-11, DHA-1, ompK35/36 by CLSI method; format: functional
Klebsiella pneumoniae [37] = experiment: Antimicrobial activity against carbapenem-resistant Klebsiella pneumoniae PU105 deficient TEM-1, SHV-12, CTX-M-14, DHA-1, qnrB10/B4-like, aac(6')-Ib-cr, ompK35/36 by CLSI method; format: functional
Escherichia coli [38] = experiment: Antimicrobial activity against Escherichia coli C600 transconjugant SZ62T expressing IMP-4, qnrS1by CLSI method
Escherichia coli [39] = experiment: Antimicrobial activity against Escherichia coli C600 transconjugant GZ66T expressing SHV-11, DHA-1 by CLSI method
Klebsiella pneumoniae [40] = experiment: Antimicrobial activity against carbapenem-resistant Klebsiella pneumoniae ZJ68 deficient in CTX-M-15, ompK35/36 by CLSI method
Escherichia coli [41] = experiment: Antimicrobial activity against carbapenem-resistant Escherichia coli ZJ86 expressing KPC-2, TEM-1 with ompC loss by CLSI method
Escherichia coli [42] = experiment: Antimicrobial activity against Escherichia coli C600 transconjugant WH77T expressing IMP-4, TEM-1, CTX-M-3, qnrS1 by CLSI method

Compound	MIC (Klebsiella pneumoniae [1]) [µg/mL]	MIC (Escherichia coli [2]) [µg/mL]	MIC (Escherichia coli [3]) [µg/mL]	MIC (Escherichia coli [4]) [µg/mL]	MIC (Klebsiella aerogenes [6]) [µg/mL]	MIC (Klebsiella aerogenes [7]) [µg/mL]	MIC (Klebsiella aerogenes [9]) [µg/mL]	MIC (Enterobacter cloacae [10]) [µg/mL]	MIC (Enterobacter cloacae [11]) [µg/mL]	MIC (Klebsiella pneumoniae [12]) [µg/mL]	MIC (Klebsiella pneumoniae [13]) [µg/mL]	MIC (Enterobacter cloacae [14]) [µg/mL]	MIC (Klebsiella pneumoniae [15]) [µg/mL]	MIC (Klebsiella pneumoniae [16]) [µg/mL]	MIC (Klebsiella pneumoniae [17]) [µg/mL]	MIC (Klebsiella pneumoniae [18]) [µg/mL]	MIC (Escherichia coli [19]) [µg/mL]	MIC (Escherichia coli [20]) [µg/mL]	MIC (Escherichia coli [21]) [µg/mL]	MIC (Klebsiella pneumoniae [22]) [µg/mL]	other results
POLYMYXIN B	0.25	0.5	0.5	0.5	0.5	0.25	0.5	0.5	0.5	0.5	0.5	> 32	0.5	0.5	0.25	1	0.5	0.5	0.25	1	MIC (Escherichia coli [5]): 0.25 µg/mL; MIC (Escherichia coli [8]): 0.25 µg/mL; MIC (Klebsiella pneumoniae [23]): 0.25 µg/mL; MIC (Klebsiella pneumoniae [24]): 0.5 µg/mL; MIC (Klebsiella pneumoniae [25]): 0.5 µg/mL; MIC (Klebsiella pneumoniae [26]): 1 µg/mL; MIC (Citrobacter freundii [27]): 0.5 µg/mL; MIC (Citrobacter freundii [28]): 0.5 µg/mL; MIC (Enterobacter cloacae [29]): 0.5 µg/mL; MIC (Escherichia coli [30]): 0.5 µg/mL; MIC (Klebsiella pneumoniae [31]): 1 µg/mL; MIC (Klebsiella pneumoniae [32]): 0.25 µg/mL; MIC (Klebsiella pneumoniae [33]): 0.5 µg/mL; MIC (Klebsiella pneumoniae [34]): 1 µg/mL; MIC (Klebsiella pneumoniae [35]): 0.5 µg/mL; MIC (Klebsiella pneumoniae [36]): 1 µg/mL; MIC (Klebsiella pneumoniae [37]): 32 µg/mL
C[C@@H](O)[C@H]1C(=O)N2C(C(=O)O)=C(SCCNC=N)C[C@H]12 [IMIPENEM ANHYDROUS]	0.25 (≈ 0.835 µM)	32 (≈ 107 µM)	32 (≈ 107 µM)	16 (≈ 53.4 µM)	32 (≈ 107 µM)	0.5 (≈ 1.67 µM)	8 (≈ 26.7 µM)	16 (≈ 53.4 µM)	16 (≈ 53.4 µM)	1 (≈ 3.34 µM)	2 (≈ 6.68 µM)	4 (≈ 13.4 µM)	16 (≈ 53.4 µM)	> 256	16 (≈ 53.4 µM)	16 (≈ 53.4 µM)	8 (≈ 26.7 µM)	8 (≈ 26.7 µM)	8 (≈ 26.7 µM)	8 (≈ 26.7 µM)	MIC (Klebsiella pneumoniae [23]): 4 µg/mL (≈ 13.4 µM); MIC (Klebsiella pneumoniae [24]): 16 µg/mL (≈ 53.4 µM); MIC (Klebsiella pneumoniae [25]): 2 µg/mL (≈ 6.68 µM); MIC (Klebsiella pneumoniae [26]): 2 µg/mL (≈ 6.68 µM); MIC (Citrobacter freundii [27]): 4 µg/mL (≈ 13.4 µM); MIC (Citrobacter freundii [28]): 4 µg/mL (≈ 13.4 µM); MIC (Enterobacter cloacae [29]): 8 µg/mL (≈ 26.7 µM); MIC (Klebsiella pneumoniae [31]): 32 µg/mL (≈ 107 µM); MIC (Klebsiella pneumoniae [32]): 0.25 µg/mL (≈ 0.835 µM); MIC (Klebsiella pneumoniae [33]): 16 µg/mL (≈ 53.4 µM); MIC (Klebsiella pneumoniae [34]): 16 µg/mL (≈ 53.4 µM); MIC (Klebsiella pneumoniae [35]): 16 µg/mL (≈ 53.4 µM); MIC (Klebsiella pneumoniae [36]): 32 µg/mL (≈ 107 µM); MIC (Klebsiella pneumoniae [37]): 32 µg/mL (≈ 107 µM); MIC (Escherichia coli [38]): 4 µg/mL (≈ 13.4 µM); MIC (Escherichia coli [39]): 0.5 µg/mL (≈ 1.67 µM); MIC (Klebsiella pneumoniae [40]): 4 µg/mL (≈ 13.4 µM); MIC (Escherichia coli [41]): 8 µg/mL (≈ 26.7 µM); MIC (Escherichia coli [42]): 4 µg/mL (≈ 13.4 µM)
